According to US5106976A, “Fused pyrazine sulfoxide derivatives for use as antiulcer agents” (Nippon Chemiphar Co., Ltd., priority 1986, dated 1992):
Read-outs that look alike come from different tables or passages of the source.

Legend:
[1] = tested on: secretion of gastric acid; assay: Inhibitory action against secretion of gastric acid (pylorus-ligated rats, Shay method); type: in vivo, male Donryu rats; conditions: read-out: Suppressive action against secretion of gastric acid
Description: Under ether anesthesia, the pylorus of the rat was ligated and each test compound was administered intraduodenally. Four hours later, each rat was killed and the stomach was removed to collect the gastric juice. The inhibitory action was determined by comparing the acid output which was obtained by titration to pH 7.0 with 0.1-N NaOH by means of an automatic titrator, with the corresponding value of a control rat prepared in the same manner except that a vehicle alone was administered.

[2] = Water-immersion stress-induced erosions (gastric lesion model); type: in vivo, male Donryu rats; conditions: rat, 10 minutes before stressing, 7 hours immersion
Description: Two different types of gastric lesion models were induced in male Donryu rats (180 to 240 g) which had been deprived of food but allowed free acess to water for 24 to 48 hours prior to experiments. Rats fasted for 24 hours before experiments were placed in a restraint cage. The animals were immersed vertically to the level of the xiphoid process in a water bath (21° C.) for 7 hours and then killed. The stomach of each rat was removed and inflated by injecting 10 ml of 1% formalin to fix the inner and outer layers of the gastric walls. This formalin treatment was performed in all of the following experiments. Subsequently, the stomach was incised along a greater curvature and examined for any erosion in the glandular portion. Each test compound or a vehicle alone was given orally 10 minutes before stressing.

H^+ +K^+ ATPase = biological target: T1, H^+ +K^+ ATPase (Oryctolagus cuniculus, UniProt P27112); assay: H+ + K+ ATPase inhibitory effect (vesicles from rabbit gastric mucosa cells); type: biochemical; conditions: 2×10^-4 M test compound, 25 min room temperature preincubation at pH 6.0; reaction pH 7.4, 37° C., 15 min
T1 construct: gastric acid secretory cells of a rabbit gastric mucosa were isolated and vesicle containing H^+ +K^+ ATPase was prepared; from tissue; host or cells: rabbit gastric mucosa, acid secretory cells; vesicles by Ficoll discontinuous density gradient
Description: Following the method of Forte et al [J. Applied Physiol., 32, 714-717 (1972)], gastric acid secretory cells of a rabbit gastric mucosa were isolated and vesicle containing H^+ +K^+ ATPase was prepared by centrifuging the cells in Ficoll of discontinuous density gradient. After the enzyme was incubated at room temperature for 25 min. in 0.5 ml of a solution which contained 5 mM of an imidazole buffer (pH 6.0) and 2×10^-4 M of each test compound, the mixture was heated to 37° C. at which it was allowed to stand for further 5 min. To the mixture was added 0.5 ml of a solution which contained 4 mM of magnesium chloride, 80 mM of an imidazole buffer (pH 7.4), 20 mM of potassium chloride and 4 mM of ATP. The resulting mixture was caused to react at 37° C. for 15 min., and 1 ml of a 24% solution of trichloroacetic acid was then added to terminate the reaction. The inorganic phosphorus liberated was quantitatively analyzed by the method proposed by Taussky and Shorr [J. Biol. Chem., 202, 675- 685 (1953)]. The K^+ -dependent activity of the ATPase was determined by subtracting its activity obtained when no potassium chloride was contained. The results are set forth in Table 1 in which Compound Nos. 1-7 are the sulfoxide derivatives prepared in the hereinafter-described Examples 1-7, respectively.

[3] = HCl-ethanol-induced erosions (gastric lesion model); type: in vivo, male Donryu rats; conditions: rat, 30 minutes before ethanol treatment
Description: Two different types of gastric lesion models were induced in male Donryu rats (180 to 240 g) which had been deprived of food but allowed free acess to water for 24 to 48 hours prior to experiments.
A hydrochloric acid-ethanol solution (150 mM HCl in 60% ethanol) was given orally to rats in a dose of 1 ml/200 g, which rats had been fasted for 24 hours before experiments. One hour later, each animal was killed and the stomach was examined for any erosion in the glandular portion. Each test compound or a vehicle alone was given orally 30 minutes before ethanol treatment.

[4] = Rattus norvegicus, intraduodenal, 4 h
[5] = 100 mg/kg intraduodenal, rat, 4 hours

T1 sequence (P27112 whole entry): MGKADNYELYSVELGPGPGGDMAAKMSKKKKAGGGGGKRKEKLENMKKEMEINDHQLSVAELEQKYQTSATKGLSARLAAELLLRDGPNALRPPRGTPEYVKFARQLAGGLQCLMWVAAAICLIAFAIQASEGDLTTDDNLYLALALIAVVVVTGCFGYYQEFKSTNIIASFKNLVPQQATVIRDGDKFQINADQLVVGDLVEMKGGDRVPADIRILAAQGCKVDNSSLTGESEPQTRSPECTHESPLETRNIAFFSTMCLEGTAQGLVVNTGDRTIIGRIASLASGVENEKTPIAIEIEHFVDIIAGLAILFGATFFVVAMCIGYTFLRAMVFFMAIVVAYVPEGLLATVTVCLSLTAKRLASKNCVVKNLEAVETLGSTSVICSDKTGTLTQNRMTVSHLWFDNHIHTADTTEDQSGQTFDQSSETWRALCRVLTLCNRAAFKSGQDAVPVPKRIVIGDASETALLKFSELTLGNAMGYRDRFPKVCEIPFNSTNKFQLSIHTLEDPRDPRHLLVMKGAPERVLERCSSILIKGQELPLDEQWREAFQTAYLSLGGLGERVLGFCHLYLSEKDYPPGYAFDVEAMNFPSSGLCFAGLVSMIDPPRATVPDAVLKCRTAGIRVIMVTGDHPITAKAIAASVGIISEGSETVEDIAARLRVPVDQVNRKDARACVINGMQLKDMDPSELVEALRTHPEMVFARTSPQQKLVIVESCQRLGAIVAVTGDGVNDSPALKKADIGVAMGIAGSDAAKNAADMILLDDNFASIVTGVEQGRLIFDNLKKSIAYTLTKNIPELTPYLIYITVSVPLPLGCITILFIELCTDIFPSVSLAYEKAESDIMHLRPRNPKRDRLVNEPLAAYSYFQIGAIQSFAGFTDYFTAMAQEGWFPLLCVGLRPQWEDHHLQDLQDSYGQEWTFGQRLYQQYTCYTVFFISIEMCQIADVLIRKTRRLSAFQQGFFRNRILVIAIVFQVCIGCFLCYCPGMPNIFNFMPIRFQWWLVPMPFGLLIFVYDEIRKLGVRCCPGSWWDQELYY
T1 sequence (P18597 whole entry partner): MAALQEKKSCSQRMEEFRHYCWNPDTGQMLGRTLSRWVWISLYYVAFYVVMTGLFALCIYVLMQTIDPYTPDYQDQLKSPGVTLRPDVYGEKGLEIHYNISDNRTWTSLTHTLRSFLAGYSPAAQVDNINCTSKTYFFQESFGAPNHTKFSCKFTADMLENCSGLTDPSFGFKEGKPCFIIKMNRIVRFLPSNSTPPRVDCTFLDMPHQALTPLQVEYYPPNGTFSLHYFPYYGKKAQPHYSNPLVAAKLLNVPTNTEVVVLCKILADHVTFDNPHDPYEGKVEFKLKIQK

inhibition at 200 µM (H^+ +K^+ ATPase) [%] | Compound | inhibition in vivo at 100 mg/kg [1, 5] [%] | further results
– | CNC(=NCCSCc1nc[nH]c1C)NC#N [Cimetidine, N-cyano-N'-methyl-N"-[2-[[(5-methyl-1H-imidazol-4-yl)methyl]thio]-ethyl]guanidine, reference compound] | – | inhibition in vivo at 10 mg/kg [1, 4]: 25.3%; inhibition in vivo at 30 mg/kg [1, 4]: 59.1%; inhibition in vivo at 100 mg/kg [1, 4]: 80.3%; Inhibition on Water-Immersion stress-induced erosions ([2]; 60 mg/kg oral): 49%; Inhibition on Water-Immersion stress-induced erosions ([2]; 200 mg/kg oral): 87%
99.5 | Cc1nc2ccccc2nc1[S+]([O-])Cc1ccccn1 (stereo not shown) [Compound No. 3, 3-methyl-2-(2-pyridylmethylsulfinyl)quinoxaline] | 54.7 | –
80.8 | Cc1cc2nc(C)c([S+]([O-])Cc3ccccc3N(C)C)nc2cc1C (stereo not shown) [Compound No. 7, 2-(2-dimethylaminobenzylsulfinyl)-3,6,7-trimethylquinoxaline] | 46.9 | –
100 | CN(C)c1ccccc1C[S+]([O-])c1cnc2ccccc2n1 (stereo not shown) [Compound No. 5, 2-(2-dimethylaminobenzylsulfinyl)quinoxaline] | 55.1 | –
92.3 | CN(C)c1ccccc1C[S+]([O-])c1nc2ncccc2[nH]1 (stereo not shown) [Compound No. 1, 2-(2-dimethylaminobenzylsulfinyl)imidazo[4,5-b]pyridine] | 95.1 | inhibition in vivo at 10 mg/kg ([1]; 10 mg/kg intraduodenal, rat, 4 hours): 53%; inhibition in vivo at 30 mg/kg ([1]; 30 mg/kg intraduodenal, rat, 4 hours): 79%; Inhibition on HCl--Ethanol-induced Erosions ([3]; 10 mg/kg oral): 37%; Inhibition on HCl--Ethanol-induced Erosions ([3]; 30 mg/kg oral): 97%; Inhibition on Water-Immersion stress-induced erosions ([2]; 30 mg/kg oral): 66%; Inhibition on Water-Immersion stress-induced erosions ([2]; 100 mg/kg oral): 87%
89.4 | Cc1nc2cccnc2nc1[S+]([O-])Cc1ccccn1 (stereo not shown) [Compound No. 4, 2-methyl-3-(2-pyridylmethylsulfinyl)pyrido[2,3-b]pyrazine] | 96.7 | –
100 | Cc1nc2ccccc2nc1[S+]([O-])Cc1ccccc1N(C)C (stereo not shown) [Compound No. 6, 2-(2-dimethylaminobenzylsulfinyl)-3-methylquinoxaline] | 89.6 | –
96.8 | [O-][S+](Cc1ccccn1)c1cnc2ccccc2n1 (stereo not shown) [Compound No. 2, 2-(2-pyridylmethylsulfinyl)quinoxaline] | 54.8 | –
